According to US20230085307A1, “PYRIDAZINONE COMPOUND AND HERBICIDE” (NISSAN CHEMICAL CORPORATION, priority 2019, published 2023):

Legend:
wild oat [1] = assay: Test Example 4: herbicidal effect by soil treatment (Table 19, symbol I); type: in vivo, wild oat (Avena fatua); conditions: amount of applied herbicide 320 g/ha
How it was run: (§1)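 Applied as a water-diluted emulsion, the compound was sprayed onto soil covering newly sown seeds. Evaluation came three weeks after application, in a greenhouse held at 25° C. to 30° C.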

Japanese bulrush = assay: Test Example 2: herbicidal activity, application during weed generation under submerged conditions (Table 17, symbol B); type: in vivo, Japanese bulrush (Schoenoplectus juncoides); conditions: AAH 320 g/ha; application during weed generation, submerged conditions
How it was run: (§2)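 Steps: fill Wagner pots with alluvial soil; add water to give 4 cm depth; sow the species mixed; grow under glass at 25–30° C.; at 1–2 leaves apply water-diluted emulsion formulation to the water surface at a fixed herbicide amount; score after 3 weeks.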

lambsquarters [2] = assay: Test Example 5: herbicidal effect by foliage application, plastic box (Table 20, symbol O); type: in vivo, lambsquarters (Chenopodium album); conditions: foliage application, 320 g/ha
How it was run: (§3)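 Sow seeds spot-wise in sterilized diluvial soil; cover with ~1.5 cm soil. Grow 14 days in greenhouse, 25° C. to 30° C. Spray foliage with emulsion diluted to predetermined amount. Rate effect after 3 weeks.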

Chinese sprangletop = assay: Test Example 3: herbicidal effect by foliage application, Wagner pot (Table 18, symbol D); type: in vivo, chinese sprangletop (Leptochloa chinensis); conditions: 320 g/ha
How it was run: (§4)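 Plants were sown in alluvial soil held under 0.1–0.5 cm standing water and grown 14 days in a greenhouse at 25–30 °C. An emulsifiable formulation, water-diluted to the set dose, was then sprayed onto the foliage, and effects were scored three weeks later using previously defined criteria.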

false cleavers [3] = assay: Test Example 4: herbicidal effect by soil treatment (Table 19, symbol Q); type: in vivo, false cleavers (Galium spurium); conditions: amount of applied herbicide 320 g/ha
How it was run: as §1

green foxtail [4] = assay: Test Example 5: herbicidal effect by foliage application, plastic box (Table 20, symbol G); type: in vivo, green foxtail (Setaria viridis); conditions: foliage application, 320 g/ha
How it was run: as §3

barnyard grass [5] = assay: Test Example 5: herbicidal effect by foliage application, plastic box (Table 20, symbol H); type: in vivo, barnyard grass (Echinochloa crus-galli); conditions: foliage application, 320 g/ha
How it was run: as §3

oval-leafed pondweed = assay: Test Example 2: herbicidal activity, application during weed generation under submerged conditions (Table 17, symbol C); type: in vivo, oval-leafed pondweed (Monochoria vaginalis); conditions: AAH 320 g/ha; application during weed generation, submerged conditions
How it was run: as §2

late watergrass = assay: Test Example 2: herbicidal activity, application during weed generation under submerged conditions (Table 17, symbol A); type: in vivo, late watergrass (Echinochloa oryzicola); conditions: AAH 320 g/ha; application during weed generation, submerged conditions
How it was run: as §2

Italian ryegrass [6] = assay: Test Example 4: herbicidal effect by soil treatment (Table 19, symbol K); type: in vivo, Italian ryegrass (Lolium multiflorum); conditions: amount of applied herbicide 320 g/ha
How it was run: as §1

southern crabgrass [7] = assay: Test Example 4: herbicidal effect by soil treatment (Table 19, symbol F); type: in vivo, southern crabgrass (Digitaria ciliaris); conditions: amount of applied herbicide 320 g/ha
How it was run: as §1

windgrass [8] = assay: Test Example 5: herbicidal effect by foliage application, plastic box (Table 20, symbol L); type: in vivo, windgrass (Apera spica-venti); conditions: foliage application, 320 g/ha
How it was run: as §3

barnyard grass [9] = assay: Test Example 4: herbicidal effect by soil treatment (Table 19, symbol H); type: in vivo, barnyard grass (Echinochloa crus-galli); conditions: amount of applied herbicide 320 g/ha
How it was run: as §1

persian speedwell [10] = assay: Test Example 5: herbicidal effect by foliage application, plastic box (Table 20, symbol R); type: in vivo, Persian speedwell (Veronica persica); conditions: foliage application, 320 g/ha
How it was run: as §3

southern crabgrass [11] = assay: Test Example 5: herbicidal effect by foliage application, plastic box (Table 20, symbol F); type: in vivo, southern crabgrass (Digitaria ciliaris); conditions: foliage application, 320 g/ha
How it was run: as §3

redroot pigweed [12] = assay: Test Example 5: herbicidal effect by foliage application, plastic box (Table 20, symbol N); type: in vivo, redroot pigweed (Amaranthus retroflexus); conditions: foliage application, 320 g/ha
How it was run: as §3

false cleavers [13] = assay: Test Example 5: herbicidal effect by foliage application, plastic box (Table 20, symbol Q); type: in vivo, false cleavers (Galium spurium); conditions: foliage application, 320 g/ha
How it was run: as §3

chickweed [14] = assay: Test Example 4: herbicidal effect by soil treatment (Table 19, symbol P); type: in vivo, common chickweed (Stellaria media); conditions: amount of applied herbicide 320 g/ha
How it was run: as §1

rice flat sedge = assay: Test Example 3: herbicidal effect by foliage application, Wagner pot (Table 18, symbol E); type: in vivo, rice flat sedge (Cyperus iria); conditions: 320 g/ha
How it was run: as §4

velvetleaf [15] = assay: Test Example 5: herbicidal effect by foliage application, plastic box (Table 20, symbol M); type: in vivo, velvetleaf (Abutilon theophrasti); conditions: foliage application, 320 g/ha
How it was run: as §3

green foxtail [16] = assay: Test Example 4: herbicidal effect by soil treatment (Table 19, symbol G); type: in vivo, green foxtail (Setaria viridis); conditions: amount of applied herbicide 320 g/ha
How it was run: as §1

lambsquarters [17] = assay: Test Example 4: herbicidal effect by soil treatment (Table 19, symbol O); type: in vivo, lambsquarters (Chenopodium album); conditions: amount of applied herbicide 320 g/ha
How it was run: as §1

chickweed [18] = assay: Test Example 5: herbicidal effect by foliage application, plastic box (Table 20, symbol P); type: in vivo, common chickweed (Stellaria media); conditions: foliage application, 320 g/ha
How it was run: as §3

blackgrass = assay: Test Example 5: herbicidal effect by foliage application, plastic box (Table 20, symbol J); type: in vivo, blackgrass (Alopecurus myosuroides); conditions: foliage application, 320 g/ha
How it was run: as §3

velvetleaf [19] = assay: Test Example 4: herbicidal effect by soil treatment (Table 19, symbol M); type: in vivo, velvetleaf (Abutilon theophrasti); conditions: amount of applied herbicide 320 g/ha
How it was run: as §1

Italian ryegrass [20] = assay: Test Example 5: herbicidal effect by foliage application, plastic box (Table 20, symbol K); type: in vivo, Italian ryegrass (Lolium multiflorum); conditions: foliage application, 320 g/ha
How it was run: as §3

redroot pigweed [21] = assay: Test Example 4: herbicidal effect by soil treatment (Table 19, symbol N); type: in vivo, redroot pigweed (Amaranthus retroflexus); conditions: amount of applied herbicide 320 g/ha
How it was run: as §1

barnyard grass [22] = assay: Test Example 3: herbicidal effect by foliage application, Wagner pot (Table 18, symbol H); type: in vivo, barnyard grass (Echinochloa crus-galli); conditions: 320 g/ha
How it was run: as §4

wild oat [23] = assay: Test Example 5: herbicidal effect by foliage application, plastic box (Table 20, symbol I); type: in vivo, wild oat (Avena fatua); conditions: foliage application, 320 g/ha
How it was run: as §3

persian speedwell [24] = assay: Test Example 4: herbicidal effect by soil treatment (Table 19, symbol R); type: in vivo, Persian speedwell (Veronica persica); conditions: amount of applied herbicide 320 g/ha
How it was run: as §1

windgrass [25] = assay: Test Example 4: herbicidal effect by soil treatment (Table 19, symbol L); type: in vivo, windgrass (Apera spica-venti); conditions: amount of applied herbicide 320 g/ha
How it was run: as §1

[26] = evaluated three weeks after application

SMILES: Cc1nn(C)c(=O)c(-c2c(-c3ccc4c(c3)OCC4)sc3ccccc23)c1O [1-085]
- herbicidal effect rating, I: wild oat (wild oat [1]): 0 (Herbicidal rate of 5% or less (almost no effect))
- herbicidal effect rating, B: Japanese bulrush (Japanese bulrush): 1 (Herbicidal rate of 5% or more and less than 20%)
- herbicidal effect grade, O: lambsquarters (lambsquarters [2]; three weeks after application): 5 (Herbicidal rate of 90% or more (almost completely withered))
- herbicidal effect on D (Chinese sprangletop), rating 0-5 (Chinese sprangletop): 4 (Herbicidal rate of 70% or more and less than 90%)
- herbicidal effect rating, Q: false cleavers (false cleavers [3]): 4 (Herbicidal rate of 70% or more and less than 90%)
- herbicidal effect grade, G: green foxtail (green foxtail [4]; three weeks after application): 5 (Herbicidal rate of 90% or more (almost completely withered))
- herbicidal effect grade, H: barnyard grass (barnyard grass [5]; three weeks after application): 5 (Herbicidal rate of 90% or more (almost completely withered))
- herbicidal effect rating, C: oval-leafed pondweed (oval-leafed pondweed): 2 (Herbicidal rate of 20% or more and less than 40%)
- herbicidal effect rating, A: late watergrass (late watergrass): 1 (Herbicidal rate of 5% or more and less than 20%)
- herbicidal effect rating, K: Italian ryegrass (Italian ryegrass [6]): 5 (Herbicidal rate of 90% or more (almost completely withered))
- herbicidal effect rating, F: southern crabgrass (southern crabgrass [7]): 5 (Herbicidal rate of 90% or more (almost completely withered))
- herbicidal effect grade, L: windgrass (windgrass [8]; three weeks after application): 5 (Herbicidal rate of 90% or more (almost completely withered))
- herbicidal effect rating, H: barnyard grass (barnyard grass [9]): 4 (Herbicidal rate of 70% or more and less than 90%)
- herbicidal effect grade, R: persian speedwell (persian speedwell [10]; three weeks after application): 5 (Herbicidal rate of 90% or more (almost completely withered))
- herbicidal effect grade, F: southern crabgrass (southern crabgrass [11]; three weeks after application): 5 (Herbicidal rate of 90% or more (almost completely withered))
- herbicidal effect grade, N: redroot pigweed (redroot pigweed [12]; three weeks after application): 5 (Herbicidal rate of 90% or more (almost completely withered))
- herbicidal effect grade, Q: false cleavers (false cleavers [13]; three weeks after application): 5 (Herbicidal rate of 90% or more (almost completely withered))
- herbicidal effect rating, P: chickweed (chickweed [14]): 4 (Herbicidal rate of 70% or more and less than 90%)
- herbicidal effect on E (rice flat sedge), rating 0-5 (rice flat sedge): 5 (Herbicidal rate of 90% or more (almost completely withered))
- herbicidal effect grade, M: velvetleaf (velvetleaf [15]; three weeks after application): 5 (Herbicidal rate of 90% or more (almost completely withered))
- herbicidal effect rating, G: green foxtail (green foxtail [16]): 4 (Herbicidal rate of 70% or more and less than 90%)
- herbicidal effect rating, O: lambsquarters (lambsquarters [17]): 5 (Herbicidal rate of 90% or more (almost completely withered))
- herbicidal effect grade, P: chickweed (chickweed [18]; three weeks after application): 5 (Herbicidal rate of 90% or more (almost completely withered))
- herbicidal effect grade, J: blackgrass (blackgrass; three weeks after application): 4 (Herbicidal rate of 70% or more and less than 90%)
- herbicidal effect rating, M: velvetleaf (velvetleaf [19]): 3 (Herbicidal rate of 40% or more and less than 70%)
- herbicidal effect grade, K: Italian ryegrass (Italian ryegrass [20]; three weeks after application): 5 (Herbicidal rate of 90% or more (almost completely withered))
- herbicidal effect rating, N: redroot pigweed (redroot pigweed [21]): 5 (Herbicidal rate of 90% or more (almost completely withered))
- herbicidal effect on H (barnyard grass), rating 0-5 (barnyard grass [22]): 5 (Herbicidal rate of 90% or more (almost completely withered))
- herbicidal effect grade, I: wild oat (wild oat [23]; three weeks after application): 4 (Herbicidal rate of 70% or more and less than 90%)
- herbicidal effect rating, R: persian speedwell (persian speedwell [24]): 4 (Herbicidal rate of 70% or more and less than 90%)

SMILES: CCCC(=O)Oc1c(C)nn(C)c(=O)c1-c1c(-c2ccc3c(c2)OCO3)sc2ccc(Cl)cc12 [2-126]
- I: wild oat, herbicidal effect rating (wild oat [1]): 0 (Herbicidal rate of 5% or less (almost no effect))
- herbicidal effect rating, B: Japanese bulrush (Japanese bulrush): 0 (Herbicidal rate of 5% or less (almost no effect))
- herbicidal effect on O: lambsquarters (lambsquarters [2]; [26]): 3 (Herbicidal rate of 40% or more and less than 70%)
- Q: false cleavers, herbicidal effect rating (false cleavers [3]): 0 (Herbicidal rate of 5% or less (almost no effect))
- herbicidal effect on G: green foxtail (green foxtail [4]; [26]): 0 (Herbicidal rate of 5% or less (almost no effect))
- herbicidal effect on H: barnyard grass (barnyard grass [5]; [26]): 0 (Herbicidal rate of 5% or less (almost no effect))
- herbicidal effect rating, C: oval-leafed pondweed (oval-leafed pondweed): 2 (Herbicidal rate of 20% or more and less than 40%)
- herbicidal effect rating, A: late watergrass (late watergrass): 0 (Herbicidal rate of 5% or less (almost no effect))
- K: Italian ryegrass, herbicidal effect rating (Italian ryegrass [6]): 0 (Herbicidal rate of 5% or less (almost no effect))
- F: southern crabgrass, herbicidal effect rating (southern crabgrass [7]): 0 (Herbicidal rate of 5% or less (almost no effect))
- herbicidal effect on L: windgrass (windgrass [8]; [26]): 0 (Herbicidal rate of 5% or less (almost no effect))
- H: barnyard grass, herbicidal effect rating (barnyard grass [9]): 0 (Herbicidal rate of 5% or less (almost no effect))
- herbicidal effect on R: persian speedwell (persian speedwell [10]; [26]): 5 (Herbicidal rate of 90% or more (almost completely withered))
- herbicidal effect on F: southern crabgrass (southern crabgrass [11]; [26]): 0 (Herbicidal rate of 5% or less (almost no effect))
- L: windgrass, herbicidal effect rating (windgrass [25]): 0 (Herbicidal rate of 5% or less (almost no effect))
- herbicidal effect on N: redroot pigweed (redroot pigweed [12]; [26]): 1 (Herbicidal rate of 5% or more and less than 20%)
- herbicidal effect on Q: false cleavers (false cleavers [13]; [26]): 2 (Herbicidal rate of 20% or more and less than 40%)
- P: chickweed, herbicidal effect rating (chickweed [14]): 3 (Herbicidal rate of 40% or more and less than 70%)
- herbicidal effect on M: velvetleaf (velvetleaf [15]; [26]): 3 (Herbicidal rate of 40% or more and less than 70%)
- G: green foxtail, herbicidal effect rating (green foxtail [16]): 0 (Herbicidal rate of 5% or less (almost no effect))
- O: lambsquarters, herbicidal effect rating (lambsquarters [17]): 2 (Herbicidal rate of 20% or more and less than 40%)
- herbicidal effect on P: chickweed (chickweed [18]; [26]): 2 (Herbicidal rate of 20% or more and less than 40%)
- herbicidal effect on J: blackgrass (blackgrass; [26]): 0 (Herbicidal rate of 5% or less (almost no effect))
- M: velvetleaf, herbicidal effect rating (velvetleaf [19]): 0 (Herbicidal rate of 5% or less (almost no effect))
- herbicidal effect on K: Italian ryegrass (Italian ryegrass [20]; [26]): 0 (Herbicidal rate of 5% or less (almost no effect))
- N: redroot pigweed, herbicidal effect rating (redroot pigweed [21]): 0 (Herbicidal rate of 5% or less (almost no effect))
- herbicidal effect on I: wild oat (wild oat [23]; [26]): 0 (Herbicidal rate of 5% or less (almost no effect))
- R: persian speedwell, herbicidal effect rating (persian speedwell [24]): 4 (Herbicidal rate of 70% or more and less than 90%)
